In paper PMC8942523, “The three-tails approach as a new strategy to improve selectivity of action of sulphonamide inhibitors against tumour-associated carbonic anhydrase IX and XII” (Journal of Enzyme Inhibition and Medicinal Chemistry, 2022):

Target: T1, hCA IX (Homo sapiens, UniProt Q16790)
T1 construct: gene CA9
Test: stopped-flow CO2 hydration
Assay type: biochemical
Excerpt: stopped-flow CO2 hydration on hCA IX

Row | Ki [µM] | SMILES
1 | 0.0306 | CCN(CC)CC(=O)N(CCc1ccc(S(N)(=O)=O)cc1)Cc1ccccc1 [compound 18, 18]
2 | 0.119 | CCN(CC(=O)N(CCc1ccc(S(N)(=O)=O)cc1)Cc1ccccc1)Cc1ccccc1 [compound 19, 19]
3 | 0.234 | NS(=O)(=O)c1ccc(CCN(Cc2ccccc2)C(=O)CN(Cc2ccccc2)Cc2ccccc2)cc1 [compound 20, 20]
4 | 0.0485 | CCCCCN(CCCCC)CC(=O)N(CCc1ccc(S(N)(=O)=O)cc1)Cc1ccccc1 [compound 21, 21]
5 | 0.123 | CCCCCCN(CCCCCC)CC(=O)N(CCc1ccc(S(N)(=O)=O)cc1)Cc1ccccc1 [compound 22, 22]
6 | 0.271 | CCCCCCCCN(CCCCCCCC)CC(=O)N(CCc1ccc(S(N)(=O)=O)cc1)Cc1ccccc1 [compound 23, 23]
7 | 0.0311 | CCN(CC)CCC(=O)N(CCc1ccc(S(N)(=O)=O)cc1)Cc1ccccc1 [compound 24, 24]
8 | 0.166 | CCN(CCC(=O)N(CCc1ccc(S(N)(=O)=O)cc1)Cc1ccccc1)Cc1ccccc1 [compound 25, 25]
9 | 0.106 | NS(=O)(=O)c1ccc(CCN(Cc2ccccc2)C(=O)CCN(Cc2ccccc2)Cc2ccccc2)cc1 [compound 26, 26]
10 | 0.134 | CCCCCN(CCCCC)CCC(=O)N(CCc1ccc(S(N)(=O)=O)cc1)Cc1ccccc1 [compound 27, 27]
11 | 0.0942 | CCCCCCN(CCCCCC)CCC(=O)N(CCc1ccc(S(N)(=O)=O)cc1)Cc1ccccc1 [compound 28, 28]
12 | 0.147 | CCCCCCCCN(CCCCCCCC)CCC(=O)N(CCc1ccc(S(N)(=O)=O)cc1)Cc1ccccc1 [compound 29, 29]
13 | 0.0429 | CCCCCCN(CCCCCC)CCC(=O)N(CCc1ccccc1)CCc1ccc(S(N)(=O)=O)cc1 [compound 30, 30]
14 | 0.296 | CCCCCCN(CCCCCC)CC(=O)N(CCc1ccc(S(N)(=O)=O)cc1)Cc1ccc2ccccc2c1 [compound 32, 32]
15 | 0.154 | CCCCCCN(CCCCCC)CC(=O)N(CCC#N)CCc1ccc(S(N)(=O)=O)cc1 [compound 33, 33]
16 | 0.0323 | N#CCCN(CCc1ccccc1)CC(=O)N(CCc1ccccc1)CCc1ccc(S(N)(=O)=O)cc1 [compound 34, 34]

Row | Ki [µM] | SMILES
17 | 0.0951 | N#CCCN(CCc1ccccc1)CC(=O)N(CCc1ccc(S(N)(=O)=O)cc1)Cc1ccco1 [compound 35, 35]
18 | 0.003 | N#CCCN(CCc1ccccc1)CC(=O)N(CCc1ccc(S(N)(=O)=O)cc1)Cc1ccc(F)cc1 [compound 36, 36]
19 | 0.151 | N#CCCN(CCc1ccccc1)CC(=O)N(CCc1ccc(S(N)(=O)=O)cc1)Cc1ccc2ccccc2c1 [compound 37, 37]
20 | 0.202 | N#CCCN(CCc1ccccc1)CC(=O)N(CCc1ccc(S(N)(=O)=O)cc1)Cc1ccc([N+](=O)[O-])cc1 [compound 38, 38]
21 | 0.0193 | N#CCCN(CCc1ccccc1)CC(=O)N(CCC#N)CCc1ccc(S(N)(=O)=O)cc1 [compound 39, 39]
22 | 0.004 | NCCCN(CCc1ccccc1)CC(=O)N(CCc1ccccc1)CCc1ccc(S(N)(=O)=O)cc1 [compound 40, 40]
23 | 0.0111 | NCCCN(CCc1ccccc1)CC(=O)N(CCc1ccc(S(N)(=O)=O)cc1)Cc1ccco1 [compound 41, 41]
24 | 0.0048 | NCCCN(CCc1ccccc1)CC(=O)N(CCc1ccc(S(N)(=O)=O)cc1)Cc1ccc(F)cc1 [compound 42, 42]
25 | 0.0343 | NCCCN(CCc1ccccc1)CC(=O)N(CCc1ccc(S(N)(=O)=O)cc1)Cc1ccc2ccccc2c1 [compound 43, 43]
26 | 0.116 | CCCCCCN(CCCCCC)CC(=O)N(CCCN)CCc1ccc(S(N)(=O)=O)cc1 [compound 44, 44]
27 | 0.0075 | NS(=O)(=O)c1ccc(CCN(CCc2ccccc2)C(=O)CN(CCC(=O)O)CCc2ccccc2)cc1 [compound 45, 45]
28 | 0.0012 | NS(=O)(=O)c1ccc(CCN(Cc2ccco2)C(=O)CN(CCC(=O)O)CCc2ccccc2)cc1 [compound 46, 46]
29 | 0.0111 | NS(=O)(=O)c1ccc(CCN(Cc2ccc(F)cc2)C(=O)CN(CCC(=O)O)CCc2ccccc2)cc1 [compound 47, 47]
30 | 0.0221 | NS(=O)(=O)c1ccc(CCN(Cc2ccc3ccccc3c2)C(=O)CN(CCC(=O)O)CCc2ccccc2)cc1 [compound 48, 48]
31 | 0.0683 | CCCCCCN(CCCCCC)CC(=O)N(CCC(=O)O)CCc1ccc(S(N)(=O)=O)cc1 [compound 49, 49]
32 | 0.0611 | CCCCCCCC/C=C\CCCCCCCCNC(=O)CCN(CCc1ccccc1)CC(=O)N(CCc1ccc(S(N)(=O)=O)cc1)Cc1ccco1 [compound 50, 50]
